Structures can show the parent of a compound that is named as a salt.

Sequence of H+/K+-ATPase (rabbit gastric mucosal microsomes) (P27112 whole entry): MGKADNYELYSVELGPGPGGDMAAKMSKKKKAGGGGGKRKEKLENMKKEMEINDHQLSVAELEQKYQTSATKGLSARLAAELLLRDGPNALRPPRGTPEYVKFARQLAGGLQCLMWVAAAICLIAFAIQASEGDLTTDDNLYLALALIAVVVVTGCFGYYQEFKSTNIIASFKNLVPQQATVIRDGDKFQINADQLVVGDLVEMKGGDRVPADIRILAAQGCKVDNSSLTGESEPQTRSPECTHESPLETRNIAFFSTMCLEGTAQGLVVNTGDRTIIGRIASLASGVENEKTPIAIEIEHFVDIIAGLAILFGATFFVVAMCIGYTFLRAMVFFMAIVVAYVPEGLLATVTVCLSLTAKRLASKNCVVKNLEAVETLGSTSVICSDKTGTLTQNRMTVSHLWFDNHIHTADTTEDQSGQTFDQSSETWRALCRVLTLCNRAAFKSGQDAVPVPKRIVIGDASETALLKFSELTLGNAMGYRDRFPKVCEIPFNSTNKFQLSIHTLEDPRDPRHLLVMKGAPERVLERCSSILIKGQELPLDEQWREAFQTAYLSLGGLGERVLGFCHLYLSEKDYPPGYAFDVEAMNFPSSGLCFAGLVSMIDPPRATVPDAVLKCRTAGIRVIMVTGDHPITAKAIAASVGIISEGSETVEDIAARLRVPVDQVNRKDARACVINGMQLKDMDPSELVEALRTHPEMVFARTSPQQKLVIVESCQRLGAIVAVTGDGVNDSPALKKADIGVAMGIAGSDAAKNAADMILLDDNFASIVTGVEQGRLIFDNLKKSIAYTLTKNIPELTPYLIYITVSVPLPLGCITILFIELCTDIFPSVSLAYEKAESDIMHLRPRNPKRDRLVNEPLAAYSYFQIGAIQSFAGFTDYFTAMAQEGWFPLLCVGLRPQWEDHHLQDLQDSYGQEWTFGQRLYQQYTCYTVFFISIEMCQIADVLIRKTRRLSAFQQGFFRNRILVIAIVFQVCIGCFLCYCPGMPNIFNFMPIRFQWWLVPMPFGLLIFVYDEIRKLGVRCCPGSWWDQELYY
Sequence of H+/K+-ATPase (rabbit gastric mucosal microsomes) (P18597 whole entry partner): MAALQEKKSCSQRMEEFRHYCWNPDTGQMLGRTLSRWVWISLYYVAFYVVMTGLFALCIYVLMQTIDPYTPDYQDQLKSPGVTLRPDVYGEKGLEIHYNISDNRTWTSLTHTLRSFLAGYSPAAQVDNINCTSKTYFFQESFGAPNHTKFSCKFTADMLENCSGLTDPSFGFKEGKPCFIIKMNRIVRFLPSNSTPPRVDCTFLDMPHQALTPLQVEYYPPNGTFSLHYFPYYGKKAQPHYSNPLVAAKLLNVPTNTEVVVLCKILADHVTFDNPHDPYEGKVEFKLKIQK

For the experiment, the target named is H+/K+-ATPase (rabbit gastric mucosal microsomes) (Oryctolagus cuniculus (Rabbit), UniProt P27112). As to the kind of experiment: In vitro screening test of H+/K+-ATPase inhibition (malachite green). As to conditions: pH 6.5, 37° C. 30 min, read-out: IC50, inhibitory effect on H+/K+-ATPase activity. It counts as biochemical. The source says:
This test example evaluates the inhibitory effects of the compounds of the present invention on the activity of H+/K+-ATPase by an in vitro screening test, and expresses them with the IC50 values of the compounds (obtained by calculating the inhibition rates at different concentrations).
• Compound solutions: The products (i.e., the compounds or the hydrochloride salt of compounds) obtained in the foregoing preparation examples of the present invention were each independently dissolved in DMSO to form solutions at suitable concentrations; • Buffer I: 50 mmol/L HEPEs-Tris, pH=6.5, 5 mmol/L magnesium chloride, […] valinomycin (J&K Scientific Ltd., goods No.: 227304); • Buffer II: 50 mmol/L HEPEs-Tris, pH=6.5, 5 mmol/L magnesium chloride, […] valinomycin, 5 mmol/L potassium chloride; • 5-adenosine triphosphate (ATP, Sigma-Aldrich, goods No.: A2383) solution: Dilute ATP with buffer I to 5 mM; • Malachite green solution: Dissolve 0.12 wt % malachite green (J&K Scientific Ltd., goods No.: 913120) in 2.5 mol/L sulfuric acid, 7.5 wt % ammonium molybdate (J&K Scientific Ltd., goods No.: 128321) and 11% Tween 20(V/V). During use, sulfuric acid, ammonium molybdate and Tween 20 are mixed in a ratio of 100:25:2; • Rabbit gastric mucosal microsomes (rich in H+/K+-ATPase, self-extracted), extracted by sucrose gradient centrifugation: The rabbit stomach was washed with tap water and 3M NaCl solution, respectively, and then the surface water was removed with filter paper. A pre-cooled homogenization buffer (4 ml/g tissue) was added and homogenized for 2-5 min in a tissue homogenizer. After the homogenizing, if there are large tissue particles, they can be removed by centrifugation (600 g, 10 min). The supernatant was then transferred to a clean centrifuge tube and centrifuged at 20,000 g for 30 min, then the supernatant was transferred to a clean centrifuge tube and further centrifuged at 100,000 g for 90 min and the precipitate was collected; the precipitate was suspended in homogenate and blown evenly, and the protein concentration was measured by the Bradford's method and adjusted to 10 mg/ml; 7.5 wt % Ficoll's layering solution was added in equal proportions. After centrifugation at 100,000 g for 60 min, the middle layer (H^+/K^+-ATPase-enriched gastric membranes) was collected in a clean centrifuge tube, diluted with homogenate by 4-5 times, and then centrifuged at 100,000 g for another 90 min, and the precipitate was collected; the precipitate was suspended in homogenate and homogenized in a glass homogenizer, and the protein concentration was measured by the Bradford's method and adjusted to 22.5 mg/ml. It was frozen at −80° C. and stored for future use.
5 μL of rabbit gastric mucosal microsomes (H^+/K^+-ATPase) was added to 45 μL of buffer II, then 5 μL of compound solution was added, and then 5 μL of 5 mM ATP solution was added to start the reaction and pre-react at 37° C. for 30 min. 15 μL of malachite green solution was added to terminate the reaction, balancing was conducted at room temperature for 20 min, and read the optical absorbance at 620 nm.
Meanwhile, the reaction of the same volume was carried out without addition of potassium chloride as a background, which was subtracted when calculating enzymatic activity.
As to `CNCc1cc(-c2ccc(OC[C@@H]3COCCO3)cc2F)n(S(=O)(=O)c2cccnc2)c1` [Compound 1, (S)-1-(5-(4-((1,4-dioxane-2-yl)methoxy)-2-fluorophenyl)-1-(pyridine-3-ylsulfonyl)-1H-pyrrole-3-yl)-N-methyl methylamine hydrochloride], the IC50 came out at 585 nM. With `CNCc1cc(-c2ccc(OCC3CCC3)cc2F)n(S(=O)(=O)c2cccnc2)c1` [Compound 2] the figure was 24.5 nM; with `CNCc1cc(-c2ccc(OCC3CCCC3)cc2F)n(S(=O)(=O)c2cccnc2)c1` [Compound 3], 20.9 nM. With `CNCc1cc(-c2ccc(OCC3CCCCC3)cc2F)n(S(=O)(=O)c2cccnc2)c1` [Compound 4] the figure was 30.9 nM; with `CNCc1cc(-c2ccc(OCC3CCC(F)(F)CC3)cc2F)n(S(=O)(=O)c2cccnc2)c1` [Compound 5], 82.4 nM. With `CNCc1cc(-c2ccc(OCC3CCCCO3)cc2F)n(S(=O)(=O)c2cccnc2)c1` (stereo not shown) [Compound 7] the figure was 254 nM.

As for `CNCc1cc(-c2ccc(OC(C)C3CCOCC3)cc2F)n(S(=O)(=O)c2cc(F)cc(F)c2)c1` (stereo not shown) [Compound 9], the IC50 came to 25.4 nM.

As to `CNCc1cc(-c2ccc(OC(C)C3CCOCC3)cc2F)n(S(=O)(=O)c2cccc(C(F)(F)F)c2)c1` (stereo not shown) [Compound 10], the IC50 came to 55.3 nM.

Turning to `CNCc1cc(-c2ccc(OC(C)C3CCOCC3)cc2F)n(S(=O)(=O)c2ccc(C)c(F)c2)c1` (stereo not shown) [Compound 11], the IC50 is 65.2 nM. With `CNCc1cc(-c2ccc(OC(C)C3CCOCC3)cc2F)n(S(=O)(=O)c2cc(F)ccc2F)c1` (stereo not shown) [Compound 12] the figure was 138 nM; with `CNCc1cc(-c2ccc(OC(C)C3CCOCC3)cc2F)n(S(=O)(=O)c2cccc(C#N)c2)c1` (stereo not shown) [Compound 13], 114 nM. With `CNCc1cc(-c2ccc(OC(C)C3CCOCC3)cc2F)n(S(=O)(=O)c2cccc(OCCOC)c2)c1` (stereo not shown) [Compound 14, 1-(5-(2-fluoro-4-(1-(tetrahydro-2H-pyran-4-yl)ethoxy)phenyl)-1-((3-(2-methoxyethoxy)phenyl)sulfonyl)-1H-pyrrol-3-yl)-N-methylmethylamine-hydrochloride] the figure was 443 nM.

Take `CNCc1cc(-c2ccc(OC(C)C3CCOCC3)cc2F)n(S(=O)(=O)c2cccc(OC)c2)c1` (stereo not shown) [Compound 15]: the IC50 was found to be 83.9 nM.

As to `CNCc1cc(-c2ccc(OC(C)C3CCOCC3)cc2F)n(S(=O)(=O)c2c(F)cccc2F)c1` (stereo not shown) [Compound 16], the IC50 amounted to 253 nM. With `CNCc1cc(-c2ccc(OC(C)C3CCOCC3)cc2F)n(S(=O)(=O)c2ccc(F)cc2F)c1` (stereo not shown) [Compound 17] the figure was 265 nM; with `CNCc1cc(-c2ccc(OC(C)C3CCOCC3)cc2F)n(S(=O)(=O)c2ccc(C#N)cc2)c1` (stereo not shown) [Compound 18], 262 nM; with `CNCc1cc(-c2ccc(OC(C)C3CCOCC3)cc2F)n(S(=O)(=O)c2cccc(F)c2)c1` (stereo not shown) [Compound 19], 233 nM. With `CNCc1cc(-c2ccc(OC(C)C3CCCCC3)cc2F)n(S(=O)(=O)c2cccnc2)c1` (stereo not shown) [Compound 20] the figure was 294 nM. For `CNCc1cc(-c2ccc(OCC3CCNCC3)cc2F)n(S(=O)(=O)c2cccnc2)c1` [Compound 21], the IC50 amounted to 2790 nM. With `CNCc1cc(-c2ccc(OCC3CCN(C)CC3)cc2F)n(S(=O)(=O)c2cccnc2)c1` [Compound 22] the figure was 458 nM.

Take `CNCc1cc(-c2ccc(OCC3CCN(C(C)=O)CC3)cc2F)n(S(=O)(=O)c2cccnc2)c1` [Compound 23]: the IC50 was found to be 908 nM. With `CNCc1cc(-c2ccc(OCC3CCOCC3)cc2F)n(S(=O)(=O)c2cccc(F)c2)c1` [Compound 24] the figure was 136 nM. With `CNCc1cc(-c2ccc(OCC3CCOCC3)cc2F)n(S(=O)(=O)c2cccc(Cl)c2)c1` [Compound 25] the figure was 58.5 nM; with `CNCc1cc(-c2ccc(OCC3CCOCC3)cc2F)n(S(=O)(=O)c2ccc(C)c(F)c2)c1` [Compound 26], 202 nM.

In the case of `CNCc1cc(-c2ccc(OCC3CCOCC3)cc2F)n(S(=O)(=O)c2cc(F)cc(F)c2)c1` [Compound 27], the IC50 was 38.7 nM. For `CNCc1cc(-c2ccc(OCC3CCOCC3)cc2F)n(S(=O)(=O)c2ccc(C#N)cc2)c1` [Compound 29], the IC50 stood at 290 nM. With `CNCc1cc(-c2ccc(OCC3CCOCC3)cc2F)n(S(=O)(=O)c2cccc(OCCF)c2)c1` [Compound 30] the figure was 474 nM; with `CCCCCOc1cccc(S(=O)(=O)n2cc(CNC)cc2-c2ccc(OCC3CCOCC3)cc2F)c1` [Compound 31], 1210 nM. With `CNCc1cc(-c2ccc(OCC3CCOCC3)cc2F)n(S(=O)(=O)c2cccc(OCCCOC)c2)c1` [Compound 32] the figure was 822 nM. Turning to `CNCc1cc(-c2ccc(OC(C)C3CCOCC3)cc2F)n(S(=O)(=O)c2cccc(OCC3CCC3)c2)c1` (stereo not shown) [Compound 33], the IC50 stood at 883 nM. With `CNCc1cc(-c2ccc(OCC3CCOCC3)cc2F)n(S(=O)(=O)c2cccc(OCC3CCCC3)c2)c1` [Compound 34] the figure was 285 nM; with `CNCc1cc(-c2ccc(OCC3CCCCC3)cc2F)n(S(=O)(=O)c2cccc(OCCF)c2)c1` [Compound 35], 8650 nM; with `CCCCCOc1cccc(S(=O)(=O)n2cc(CNC)cc2-c2ccc(OCC3CCCCC3)cc2F)c1` [Compound 36], 2270 nM. With `CNCc1cc(-c2ccc(OC(C)C3CCOCC3)cc2F)n(S(=O)(=O)c2cccc(OCCCCOC)c2)c1` (stereo not shown) [Compound 38] the figure was 199 nM. Regarding `CNCc1cc(-c2ccc(OCC3CCOCC3)cc2F)n(S(=O)(=O)c2cccc(C(F)(F)F)c2)c1` [Compound 39], the IC50 worked out at 34.6 nM. With `CNCc1cc(-c2ccc(OC)cc2F)n(S(=O)(=O)c2cccnc2)c1` [Compound 40] the figure was 123 nM; with `CCOc1ccc(-c2cc(CNC)cn2S(=O)(=O)c2cccnc2)c(F)c1` [Compound 41], 567 nM; with `CNCc1cc(-c2ccc(OCC(F)F)cc2F)n(S(=O)(=O)c2cccnc2)c1` [Compound 42], 401 nM. With `CNCc1cc(-c2ccc(OCCCOC)cc2F)n(S(=O)(=O)c2cccnc2)c1` [Compound 43], the IC50 came out at 482 nM.

Turning to `CNCc1cc(-c2ccc(OCC(C)C)cc2F)n(S(=O)(=O)c2cccnc2)c1` [Compound 44], the IC50 was 500 nM.

As for `CNCc1cc(-c2ccc(OCC(C)(C)C)cc2F)n(S(=O)(=O)c2cccnc2)c1` [Compound 45], the IC50 stood at 204 nM. With `CCNCc1cc(-c2ccc(OCC3CCOCC3)cc2F)n(S(=O)(=O)c2cccnc2)c1` [Compound 46] the figure was 639 nM. With `CNCc1cc(-c2ccc(OC(C)C3CCOCC3)c(F)c2)n(S(=O)(=O)c2cccnc2)c1` (stereo not shown) [Compound 47] the figure was 247 nM; with `CNCc1cc(-c2ccc(OC[C@H]3CO3)cc2F)n(S(=O)(=O)c2cccnc2)c1` [Compound 49], 146 nM; with `CNCc1cc(-c2ccc(OC[C@@H]3CO3)cc2F)n(S(=O)(=O)c2cccnc2)c1` [Compound 50], 114 nM.

As for `CNCc1cn(S(=O)(=O)c2cccnc2)c(-c2ccc(OCC3CC3)cc2F)c1F` [Compound 51], the IC50 amounted to 35.2 nM. With `CNCc1cc(-c2ccc(OCC(C)(C)O)cc2F)n(S(=O)(=O)c2cccnc2)c1` [Compound 52] the figure was 372 nM.

Turning to `CNCc1cc(-c2ccc(OC[C@@H]3C[C@@H]3F)cc2F)n(S(=O)(=O)c2cccnc2)c1` [Compound 53], the IC50 was found to be 56.1 nM. For the compound `CNCc1cc(-c2ccc(OCc3cc(F)ccc3F)cc2F)n(S(=O)(=O)c2cccnc2)c1` [Compound 54], the IC50 stood at 17.8 nM. With `CNCc1cc(-c2ccc(OCc3ccc(F)cc3F)cc2F)n(S(=O)(=O)c2cccnc2)c1` [Compound 55] the figure was 8.6 nM. With `CNCc1cc(-c2ccc(OCc3c(F)cccc3F)cc2F)n(S(=O)(=O)c2cccnc2)c1` [Compound 56] the figure was 13.3 nM. With `CNCc1cc(-c2ccc(OCc3ccc(F)c(F)c3)cc2F)n(S(=O)(=O)c2cccnc2)c1` [Compound 57] the figure was 46.3 nM.

These data come from patent US20260001864A1, “COMPOUND CONTAINING SULFAMIDE STRUCTURE, AND PREPARATION METHOD THEREFOR AND APPLICATION THEREOF, AND PHARMACEUTICAL COMPOSITION AND APPLICATION” (Nanjing Shuohui Pharmatechnology Co., Ltd, priority 2021, published 2026).
